We go through 5 compounds from patent US8338339B2, “Process for inhibition of proteolytic activity during the ensiling of forages” (The United States of America as represented by the …, priority 2003, dated 2012).

SMILES strings stand for the structures. Bounds are passed on as bounds.

What all share (type): biochemical
The test system of experiment [1] is proteolytic activity in red clover leaf extracts. The experiment in a line: Proteolysis (release of free amino acids, ninhydrin assay) in red clover leaf extracts. Particulars: desalted red clover extract + 3 mM CA, 37° C. As to the method: Clarified extracts of red clover leaves were made in 50 mM MES, pH 6.5 (crude extract in Table 1). Where indicated, extracts were desalted using a Sephadex G-25 spin column equilibrated with 50 mM MES, pH 6.5, to remove low molecular weight molecules (i.e. o-diphenols). Extract protein concentrations were adjusted to 2 mg/ml with buffer. Where indicated, the o-diphenol in the form of caffeic acid (CA) was added to a final concentration of 3 mM. Extracts were incubated at 37° C. […] Data are the average of three experiments using independent tissue samples ±standard error.

The test system of experiment [2] is proteolysis in control-alfalfa leaf extracts (no PPO transgene). Description: Proteolysis (amino acid release) in control-alfalfa leaf extracts. As to the method:
(§1) Clarified extracts of red clover leaves were made in 50 mM MES, pH 6.5 (crude extract in Table 1). Where indicated, extracts were desalted using a Sephadex G-25 spin column equilibrated with 50 mM MES, pH 6.5, to remove low molecular weight molecules (i.e. o-diphenols). Extract protein concentrations were adjusted to 2 mg/ml with buffer. Where indicated, the o-diphenol in the form of caffeic acid (CA) was added to a final concentration of 3 mM. Extracts were incubated at 37° C. At the indicated times, samples were removed, trichloroacetic acid (TCA) added to 5%, and release of free amino acids (a measure of proteolytic activity) into the TCA-soluble supernatant was determined by ninhydrin assay. Data are the average of three experiments using independent tissue samples ±standard error.
(§2) Proteolysis was measured in leaf extracts essentially as described in Experiment 1 above. The o-diphenol in the form of caffeic acid was added to 3 mM caffeic acid. Data are the average of three experiments using independent tissue samples ±standard error.
(§3) Proteolysis after a four hour incubation at 37° C. was measured essentially as described for Experiment 1 above in leaf extracts of either transgenic alfalfa expressing the red clover PPO1 gene (PPO-alfalfa) or control-alfalfa not expressing an exogenous PPO gene (control-alfalfa) using the o-diphenol in the form of caffeic acid at various concentrations up to 10 mM. Data are the average of three experiments using independent tissue samples ±standard error.
(§4) Proteolysis in the reaction mixtures following a four hour incubation at 37° C. was measured essentially as described above for reaction mixture with and without caffeic acid added to 3 mM (+CA and −CA, respectively). Data are the average of three experiments using independent tissue samples ±standard error.
(§5) Proteolysis after a four hour incubation at 37° C. was measured (as described in Example 1 above) of alfalfa for reaction mixtures containing either 250 mU/ml PPO activity (protein adjusted to 2 mg/ml with control alfalfa extract) or a control alfalfa extract (2 mg/ml protein). Various o-diphenols were present in the reaction mixtures at 3 mM, including caffeic acid (CA) hydrocaffeic acid (HCA), chlorogenic acid (CGA), catechol, and (−)-epicatichin.

The subject of experiment [3] is proteolysis in leaf extracts of transgenic alfalfa expressing the red clover PPO1 gene. Description: Proteolysis (amino acid release) in PPO-alfalfa leaf extracts / alfalfa extracts with PPO activity. The settings on record: for inhibition of proteolysis: 3 mM caffeic acid. The protocol: as §1, §2, §3, §4, §5
The subject of experiment [4] is proteolysis in oat leaf extracts. Description: Proteolysis (amino acid release) in oat leaf extracts. The settings on record: for Mean amino acid release: with 3 mM Caffeic Acid. As to the method: as §1
Proteolysis was measured in oat leaf extracts or oat leaf extracts with PPO activity added (125 mU/ml). The added PPO activity was from an extract of red clover PPO1-expressing alfalfa. […] Total protein was 1.75 mg/ml. In Oat+alfalfa extracts, oat protein was present at 1.4 mg/ml and alfalfa protein was present at 0.35 mg/ml. Caffeic acid was present at 3 mM. Results in Table 6 below are for the average of two experiments using independent tissue samples.

The test system of experiment [5] is polyphenol oxidase (PPO), red clover PPO1 gene product. The experiment in a line: PPO activity (caffeic acid oxidized per minute, TNB protocol). The settings on record: PPO1 expressed in transgenic alfalfa. The protocol:
The o-diphenol compound is applied to forage at a rate ranging from about 5 to about 30 micromoles per gram of fresh weight forage and the oxidase is applied at a rate of about 0.1 to about 1 unit per gram of fresh weight forage. One unit is defined as one micromole of caffeic acid oxidized per minute by the following protocol.
The protocol used to determine activity is carried out at 25° C. The buffer is 20 mM TRIS-acetate pH 7.0. The caffeic acid is 100 mM in ethyl alcohol. […] The decrease in absorbance at 412 nm (TNB) from 2-5 minutes is used to determine PPO activity.
PPO activity present in reaction mixtures was varied from 0 to 500 mU/ml of extract by mixing extracts from PPO- and control-alfalfa (1 U=1 micromole caffeic acid oxidized/min; red clover and PPO-Alfalfa have 0.5-5 U activity/mg protein) to achieve a final protein concentration of 2 mg/ml. Proteolysis in the reaction mixtures following a four hour incubation at 37° C. was measured essentially as described above for reaction mixture with and without caffeic acid added to 3 mM (+CA and −CA, respectively). […]

[6] abbreviates: Control-Alfalfa extract 2 mg/ml protein, substrate 3 mM, 37° C.
The mark [7] stands for this setting: PPO-Alfalfa, 250 mU/ml PPO activity, substrate 3 mM, 37° C.

Turning to `O=C(O)/C=C/c1ccc(O)c(O)c1` [CA, caffeic acid], the “release of free amino acids” value in experiment [1] (0 h) came out at 0.00 ± 0.00; in experiment [1] (1 h), 0.04 ± 0.01; in experiment [1] (2 h), 0.06 ± 0.01; in experiment [1] (3 h), 0.09 ± 0.01; in experiment [1] (4 h), 0.11 ± 0.02. Also, the “Mean four hour Amino Acid Release” value in experiment [2] (3 mM Caffeic Acid, PPO 0 mU/ml (control-alfalfa extract), protein 2 mg/ml) was determined as 0.79 ± 0.10 µmol/mg; in experiment [2] (setting [6]), 0.75 ± 0.08 µmol/mg; in experiment [2] (Control-Alfalfa, caffeic acid 0.5 mM, 37° C.) it was 0.75 ± 0.09 µmol/mg; in experiment [2] (Control-Alfalfa, caffeic acid 1 mM, 37° C.), 0.69 ± 0.06 µmol/mg; in experiment [2] (Control-Alfalfa, caffeic acid 2 mM, 37° C.) it was 0.70 ± 0.07 µmol/mg; in experiment [2] (Control-Alfalfa, caffeic acid 3 mM, 37° C.), 0.66 ± 0.09 µmol/mg. Besides, the “Mean four hour Amino Acid Release” value in experiment [2] (Control-Alfalfa, caffeic acid 4 mM, 37° C.) was 0.75 ± 0.07 µmol/mg; in experiment [2] (Control-Alfalfa, caffeic acid 5 mM, 37° C.), 0.75 ± 0.11 µmol/mg; in experiment [2] (Control-Alfalfa, caffeic acid 10 mM, 37° C.) it was 0.65 ± 0.06 µmol/mg; in experiment [3] (3 mM Caffeic Acid, PPO 16 mU/ml, protein 2 mg/ml), 0.36 ± 0.03 µmol/mg; in experiment [3] (3 mM Caffeic Acid, PPO 32 mU/ml, protein 2 mg/ml), 0.34 ± 0.05 µmol/mg; in experiment [3] (3 mM Caffeic Acid, PPO 62.5 mU/ml, protein 2 mg/ml), 0.21 ± 0.02 µmol/mg. Further, the “Mean four hour Amino Acid Release” value in experiment [3] (3 mM Caffeic Acid, PPO 125 mU/ml, protein 2 mg/ml) was found to be 0.15 ± 0.03 µmol/mg; in experiment [3] (3 mM Caffeic Acid, PPO 250 mU/ml, protein 2 mg/ml), 0.12 ± 0.01 µmol/mg; in experiment [3] (3 mM Caffeic Acid, PPO 500 mU/ml, protein 2 mg/ml) it was 0.06 ± 0.03 µmol/mg; in experiment [3] (setting [7]), 0.12 ± 0.03 µmol/mg; in experiment [3] (PPO-Alfalfa, caffeic acid 0.5 mM, 37° C.) it was 0.32 ± 0.03 µmol/mg; in experiment [3] (PPO-Alfalfa, caffeic acid 1 mM, 37° C.), 0.25 ± 0.03 µmol/mg. The “Mean four hour Amino Acid Release” value in experiment [3] (PPO-Alfalfa, caffeic acid 2 mM, 37° C.) was determined as 0.16 ± 0.03 µmol/mg; in experiment [3] (PPO-Alfalfa, caffeic acid 3 mM, 37° C.), 0.11 ± 0.02 µmol/mg; in experiment [3] (PPO-Alfalfa, caffeic acid 4 mM, 37° C.), 0.08 ± 0.02 µmol/mg; in experiment [3] (PPO-Alfalfa, caffeic acid 5 mM, 37° C.), 0.06 ± 0.01 µmol/mg; in experiment [3] (PPO-Alfalfa, caffeic acid 10 mM, 37° C.) it was 0.04 ± 0.02 µmol/mg. In addition, the effect on proteolysis result in experiment [2] (caffeic acid 3 mM added to control alfalfa extracts) is listed as “no significant effect”; in experiment [2] (in the absence of PPO activity, caffeic acid up to 10 mM) it was “little effect”. The inhibition of proteolysis in experiment [3] (>125 mU/ml PPO activity, four hour) is reported as above 80%; in experiment [3] (PPO activity 16 mU/ml, four hour) it was above 50%. Besides, the “proteolytic inhibition compared to extracts to which no caffeic acid was added” value in experiment [3] (caffeic acid 0.5 mM, PPO-alfalfa extract, four hour) is given as above 50%. This compound also returned a reduction in proteolysis in experiment [3] (caffeic acid 3 mM added to PPO-alfalfa extract) of around 80%. Also, the proteolytic inhibition in experiment [3] (caffeic acid 3 mM, PPO-alfalfa extract, four hour) is above 80%; in experiment [4] (3 mM caffeic acid with exogenous PPO added (125 mU/ml) to oat extract), around 50%. Moreover, the “Mean amino acid release” value worked out at 0.00 ± 0.00 μmol/mg protein in experiment [4] (Oat extract, time 0); 0.82 ± 0.18 μmol/mg protein in experiment [4] (Oat extract, time 1); 1.39 ± 0.09 μmol/mg protein in experiment [4] (Oat extract, time 2); 1.73 ± 0.15 μmol/mg protein in experiment [4] (Oat extract, time 3); 1.79 ± 0.07 μmol/mg protein in experiment [4] (Oat extract, time 4); 0.00 ± 0.00 μmol/mg protein in experiment [4] (Oat/Control-Alf extract, time 0). For the same compound, the “Mean amino acid release” value in experiment [4] (Oat/Control-Alf extract, time 1) is given as 0.75 ± 0.17 μmol/mg protein; in experiment [4] (Oat/Control-Alf extract, time 2) it was 1.42 ± 0.06 μmol/mg protein; in experiment [4] (Oat/Control-Alf extract, time 3) it was 1.73 ± 0.05 μmol/mg protein; in experiment [4] (Oat/Control-Alf extract, time 4), 1.91 ± 0.05 μmol/mg protein; in experiment [4] (Oat/PPO-Alf (PPO 125 mU/ml), time 0) it was 0.00 ± 0.00 μmol/mg protein; in experiment [4] (Oat/PPO-Alf (PPO 125 mU/ml), time 1), 0.60 ± 0.20 μmol/mg protein. In addition, the “Mean amino acid release” value in experiment [4] (Oat/PPO-Alf (PPO 125 mU/ml), time 2) turned out to be 0.80 ± 0.13 μmol/mg protein; in experiment [4] (Oat/PPO-Alf (PPO 125 mU/ml), time 3), 0.82 ± 0.11 μmol/mg protein; in experiment [4] (Oat/PPO-Alf (PPO 125 mU/ml), time 4), 1.02 ± 0.22 μmol/mg protein. In addition, in experiment [4] (all oat reactions containing 3 mM CA), the “lower proteolysis than counterparts lacking caffeic acid” value is on record as 10-30%.
For the compound `O=C(/C=C/c1ccc(O)c(O)c1)O[C@@H]1C[C@](O)(C(=O)O)C[C@@H](O)[C@H]1O` [CGA, chlorogenic acid], the “Mean four hour Amino Acid Release” value is 0.80 ± 0.06 µmol/mg in experiment [2] (setting [6]) and 0.26 ± 0.06 µmol/mg in experiment [3] (setting [7]).
As to `Oc1ccccc1O` [Catechol, catechol], the “Mean four hour Amino Acid Release” value in experiment [2] (setting [6]) was found to be 0.71 ± 0.10 µmol/mg; in experiment [3] (setting [7]) it was 0.37 ± 0.05 µmol/mg. The “proteolytic inhibition (in words)” value in experiment [3] (3 mM, PPO present (250 mU/ml), four hour) is reported as “significant proteolytic inhibition”. The “substrate quality for the red clover PPO1 gene product” value in experiment [5] is “relatively poor substrate”.
For `Oc1cc(O)c2c(c1)O[C@H](c1ccc(O)c(O)c1)[C@H](O)C2` [Epicatichin, (−)-epicatichin], the “Mean four hour Amino Acid Release” value in experiment [2] (setting [6]) is 0.64 ± 0.08 µmol/mg; in experiment [3] (setting [7]) it was 0.25 ± 0.08 µmol/mg.
The matching figures for `O=C(O)CCc1ccc(O)c(O)c1` [HCA, hydrocaffeic acid]: 0.70 ± 0.07 µmol/mg and 0.25 ± 0.07 µmol/mg.
